Measurements from patent US4011390A, “Semi-synthetic aminocyclitol aminoglycoside antibiotics and methods for the preparation thereof” (Schering-Plough Corporation, priority 1974, dated 1977).
Converted amounts (≈) assume the structure as drawn. Where two headings read alike, the source gives them in different places.

Experiments:
[1] = test system: Salmonella typhimurium; experiment: MIC in Mueller-Hinton Broth pH 7.2; type: cell-based; details: Salmonella enterica, strain B
Excerpt: (§1) In vitro Activity of the Mutamicins and Sisomicin
(§2) MIC's in Mueller-Hinton Broth pH 7.2

[2] = test system: Aspergillus niger; experiment: MIC in Mueller-Hinton Broth pH 7.2; type: cell-based; details: Mueller-Hinton Broth pH 7.2, read-out: MIC
Excerpt: as §1, §2

[3] = test system: Streptococcus pyogenes; experiment: MIC in Mueller-Hinton Broth pH 7.2; type: cell-based
Excerpt: as §1, §2

[4] = test system: Proteus rettgeri; experiment: MIC in Mueller-Hinton Broth pH 7.2; type: cell-based; details: Providencia rettgeri; Mueller-Hinton Broth pH 7.2; read-out: MIC
Excerpt: as §1, §2

[5] = test system: Klebsiella pneumoniae; experiment: MIC in Mueller-Hinton Broth pH 7.2; type: cell-based
Excerpt: as §1, §2

[6] = test system: Candida albicans; experiment: MIC in Mueller-Hinton Broth pH 7.2; type: cell-based; details: Mueller-Hinton Broth pH 7.2, read-out: MIC
Excerpt: as §1, §2

[7] = test system: Pseudomonas aeruginosa; experiment: MIC in Mueller-Hinton Broth pH 7.2; type: cell-based
Excerpt: as §1, §2

[8] = test system: Staphylococcus aureus; experiment: MIC in Mueller-Hinton Broth pH 7.2; type: cell-based
Excerpt: as §1, §2

[9] = test system: Serratia; experiment: MIC in Mueller-Hinton Broth pH 7.2; type: cell-based; details: strain 127, Mueller-Hinton Broth pH 7.2, read-out: MIC
Excerpt: as §1, §2

[10] = test system: Trichophyton rubrum; experiment: MIC in Mueller-Hinton Broth pH 7.2; type: cell-based; details: Mueller-Hinton Broth pH 7.2, read-out: MIC
Excerpt: as §1, §2

[11] = test system: Providence; experiment: MIC in Mueller-Hinton Broth pH 7.2; type: cell-based; details: strain (Genta. R.) 164
Excerpt: as §1, §2

[12] = test system: Bacillus subtilis; experiment: MIC in Mueller-Hinton Broth pH 7.2; type: cell-based; details: ATCC6633, strain ATCC 6633
Excerpt: as §1, §2

[13] = test system: Escherichia coli; experiment: MIC in Mueller-Hinton Broth pH 7.2; type: cell-based
Excerpt: as §1, §2

[14] = test system: Streptococcus pyogenes; experiment: Disc test, Bauer-Kirby technique with 10 Mcg. discs; type: cell-based; details: Streptococcus pyogenes
Excerpt: (§3) Disc Test Results (Replicate Tests) With The Mutamicins, Sisomicin and
(§4) Bauer-Kirby Technique^1 With 10 Mcg. Discs
(§5) ^1 Bauer, Kirby, Sherris and Turck, American Journal of Clinical

[15] = test system: Klebsiella pneumoniae; experiment: as above; type: cell-based; details: Klebsiella pneumoniae
Excerpt: as §3, §4, §5

[16] = test system: Pseudomonas aeruginosa; experiment: as above; type: cell-based; details: Pseudomonas aeruginosa
Excerpt: as §3, §4, §5

[17] = test system: Staphylococcus aureus; experiment: as above; type: cell-based; details: Staphylococcus aureus
Excerpt: as §3, §4, §5

[18] = test system: Providence 164; experiment: as above; type: cell-based; details: strain 164
Excerpt: as §3, §4, §5

[19] = test system: Bacillus subtilis; experiment: as above; type: cell-based; details: Bacillus subtilis, ATCC6633, strain ATCC 6633
Excerpt: as §3, §4, §5

[20] = test system: Escherichia coli; experiment: as above; type: cell-based; details: Escherichia coli, read-out: Zone Size
Excerpt: as §3, §4, §5

[21] = Acute Toxicity; details: mouse, in vivo
[22] = test system: Staphylococcus; experiment: Protection Tests in Mice; type: in vivo; details: Staphylococcus Gray, read-out: PD50
Excerpt: (§6) In vivo Activity of the Mutamicin 1 and Sisomicin
(§7) Protection Tests in Mice

[23] = test system: Pseudomonas aeruginosa; experiment: Protection Tests in Mice; type: in vivo
Excerpt: as §6, §7

[24] = test system: Escherichia coli; experiment: Protection Tests in Mice; type: in vivo
Excerpt: as §6, §7

In the case of `CN[C@@H]1[C@@H](O)[C@@H](O[C@H]2[C@H](N)[C@@H](O)[C@H](N)[C@@H](O[C@H]3OC(CN)=CC[C@H]3N)[C@@H]2O)OC[C@]1(C)O` [Mutamicin 1], the MIC [1] is reported as 3 µg/mL (≈ 6.47 µM), the MIC [2] is reported as over 10 µg/mL and the MIC ([3]; pH 7.2, strain 27) is reported as 7.5 µg/mL (≈ 16.2 µM). The MIC ([3]; pH 7.2, strain Alvarez) was 7.5 µg/mL (≈ 16.2 µM), the MIC ([3]; pH 7.2, strain C) was 3 µg/mL (≈ 6.47 µM) and the MIC ([3]; pH 7.2, strain Cruz) was 3 µg/mL (≈ 6.47 µM). It also gave an MIC ([3]; pH 7.2, strain Karipeds) of 3 µg/mL (≈ 6.47 µM), an MIC ([3]; pH 7.2, strain Labay) of 7.5 µg/mL (≈ 16.2 µM) and an MIC [4] of 3 µg/mL (≈ 6.47 µM). For the same compound, the MIC ([5]; pH 7.2, strain Ad 18) was 0.3 µg/mL (≈ 0.647 µM), the MIC ([5]; pH 7.2, strain Genta. adenyl 121) was 3 µg/mL (≈ 6.47 µM) and the MIC ([5]; pH 7.2, strain Genta. adenyl 3020) was 0.3 µg/mL (≈ 0.647 µM). It also gave an MIC ([5]; pH 7.2, strain Genta. adenyl 3694) of 0.3 µg/mL (≈ 0.647 µM), an MIC ([5]; pH 7.2, strain Kana. phos. Ad 22) of 0.3 µg/mL (≈ 0.647 µM) and an MIC [6] of over 25 µg/mL. It also gave an MIC ([7]; pH 7.2) of over 25 µg/mL, an MIC ([7]; pH 7.2, strain 762, Mueller-Hinton Broth pH 7.2, read-out: MIC) of 3 µg/mL (≈ 6.47 µM) and an MIC ([7]; pH 7.2, strain 1262, Mueller-Hinton Broth pH 7.2, read-out: MIC) of 3 µg/mL (≈ 6.47 µM). It also gave an MIC ([7]; pH 7.2, strain 1395, Mueller-Hinton Broth pH 7.2, read-out: MIC) of 3 µg/mL (≈ 6.47 µM), an MIC ([7]; pH 7.2, strain D-2, Mueller-Hinton Broth pH 7.2, read-out: MIC) of 0.8 µg/mL (≈ 1.73 µM) and an MIC ([7]; pH 7.2, strain Genta. acetyl Capetown 18, Mueller-Hinton Broth pH 7.2, read-out: MIC) of 7.5 µg/mL (≈ 16.2 µM). It also gave an MIC ([7]; pH 7.2, strain Genta. acetyl Stone 130, Mueller-Hinton Broth pH 7.2, read-out: MIC) of 17.5 µg/mL (≈ 37.8 µM), an MIC ([7]; pH 7.2, strain NRRL B3223, Mueller-Hinton Broth pH 7.2, read-out: MIC) of 0.3 µg/mL (≈ 0.647 µM) and an MIC ([7]; pH 7.2, strain Stone 20, Mueller-Hinton Broth pH 7.2, read-out: MIC) of 3 µg/mL (≈ 6.47 µM). For the same compound, the MIC ([7]; pH 7.2, strain Stone 39, Mueller-Hinton Broth pH 7.2, read-out: MIC) was 3 µg/mL (≈ 6.47 µM), the MIC ([7]; pH 7.2, strain Stone 138, Mueller-Hinton Broth pH 7.2, read-out: MIC) was 17.5 µg/mL (≈ 37.8 µM) and the MIC ([8]; ATCC6538P, pH 7.2, strain ATCC 6538P) was 0.3 µg/mL (≈ 0.647 µM). It also gave an MIC ([8]; pH 7.2, strain 59N) of 0.3 µg/mL (≈ 0.647 µM), an MIC ([8]; pH 7.2, strain 1118) of 3 µg/mL (≈ 6.47 µM) and an MIC ([8]; pH 7.2, strain Grey) of 3 µg/mL (≈ 6.47 µM). The MIC ([8]; pH 7.2, strain Wood) was 0.08 µg/mL (≈ 0.173 µM), the MIC ([8]; pH 7.2, strain Ziegler) was 0.08 µg/mL (≈ 0.173 µM) and the MIC [9] was 0.8 µg/mL (≈ 1.73 µM). It also gave an MIC [10] of over 10 µg/mL, an MIC [11] of over 25 µg/mL and an MIC [12] of 0.03 µg/mL (≈ 0.0647 µM). The MIC ([13]; ATCC10536, pH 7.2, strain ATCC 10536) was 0.3 µg/mL (≈ 0.647 µM), the MIC ([13]; pH 7.2, strain Baker 2) was 3 µg/mL (≈ 6.47 µM) and the MIC ([13]; pH 7.2, strain Fl4-Bk) was 3 µg/mL (≈ 6.47 µM). It also gave an MIC ([13]; pH 7.2, strain Genta. adenyl LA290-R55) of 3 µg/mL (≈ 6.47 µM), an MIC ([13]; pH 7.2, strain Genta. adenyl W677/R55) of 0.8 µg/mL (≈ 1.73 µM) and an MIC ([13]; pH 7.2, strain Kana. phosphor. 589) of 3 µg/mL (≈ 6.47 µM). For the same compound, the MIC ([13]; pH 7.2, strain Kana. phosphor. C-13) was 3 µg/mL (≈ 6.47 µM), the MIC ([13]; pH 7.2, strain Tobra. R 4195) was 3 µg/mL (≈ 6.47 µM) and the zone of inhibition at 10 µg/disc ([14]; strain B-Cruz) was 17 mm. For the same compound, the zone of inhibition at 10 µg/disc ([14]; strain C) was 13 mm, the zone of inhibition at 10 µg/disc ([15]; strain Ad 17) was 24 mm and the zone of inhibition at 10 µg/disc ([15]; strain Ad 18) was 26 mm. For the same compound, the zone of inhibition at 10 µg/disc ([15]; strain Georgetown 3020) was 26 mm, the zone of inhibition at 10 µg/disc ([15]; strain Georgetown 3694) was 26 mm and the zone of inhibition at 10 µg/disc ([16]; strain Capetown 18) was 19 mm. It also gave a zone of inhibition at 10 µg/disc ([16]; strain D-2) of 21 mm, a zone of inhibition at 10 µg/disc ([16]; strain St. Michael 413) of 27 mm and a zone of inhibition at 10 µg/disc ([16]; strain St. Michael 762) of 24 mm. It also gave a zone of inhibition at 10 µg/disc ([16]; strain St. Michael 1262) of 18 mm, a zone of inhibition at 10 µg/disc ([16]; strain St. Michael 1395) of 29 mm and a zone of inhibition at 10 µg/disc ([16]; strain Stone 20) of 31 mm. The zone of inhibition at 10 µg/disc ([16]; strain Stone 39) was 29 mm, the zone of inhibition at 10 µg/disc ([16]; strain Stone 130) was 14 mm and the zone of inhibition at 10 µg/disc ([16]; strain Stone 138) was 15 mm. It also gave a zone of inhibition at 10 µg/disc ([17]; ATCC6538P, strain ATCC 6538P) of 26 mm, a zone of inhibition at 10 µg/disc ([17]; strain 59N) of 26 mm and a zone of inhibition at 10 µg/disc ([17]; strain Wood) of 28 mm. For the same compound, the zone of inhibition at 10 µg/disc ([17]; strain Ziegler) was 25 mm, the zone of inhibition at 10 µg/disc [18] was 15 mm and the zone of inhibition at 10 µg/disc [19] was 31 mm. The zone of inhibition at 10 µg/disc ([20]; ATCC10536, strain ATCC 10536, 10 Mcg. discs) was 31 mm, the zone of inhibition at 10 µg/disc [20] was 11 mm and the zone of inhibition at 10 µg/disc ([20]; strain 589, 10 Mcg. discs) was 29 mm. It also gave a zone of inhibition at 10 µg/disc ([20]; strain JR90, 10 Mcg. discs) of 0 mm, a zone of inhibition at 10 µg/disc ([20]; strain LA290/R55, 10 Mcg. discs) of 29 mm and a zone of inhibition at 10 µg/disc ([20]; strain Swidinsky 4195, 10 Mcg. discs) of 28 mm. For the same compound, the zone of inhibition at 10 µg/disc ([20]; strain W677/R55, 10 Mcg. discs) was 30 mm, the LD50 ([21]; ip) was over 700 mg/kg and the LD50 ([21]; iv) was 110 mg/kg. For the same compound, the ED50 [22] was 6 mg/kg, the ED50 ([23]; Pseudomonas aeruginosa 2552, read-out: PD50) was 15.3 mg/kg and the ED50 ([23]; Pseudomonas aeruginosa 2557, read-out: PD50) was 17.1 mg/kg. It also gave an ED50 ([23]; sc, Pseudomonas aeruginosa Sc., read-out: PD50) of 2.5 mg/kg, an ED50 ([24]; Escherichia coli 6922, read-out: PD50) of 2.5 mg/kg and an ED50 ([24]; Escherichia coli Sc., read-out: PD50) of 5 mg/kg.
